Results: patent US7833991B2, “Amine compound and use thereof” (Kureha Corporation, priority 2002, dated 2010)

Assays:
CXCR4 = molecular target: T1, CXCR4 (Homo sapiens, UniProt P61073); experiment: Inhibition of 125I-SDF-1α binding to receptors CXCR4 on MT-4 cells (Test Examples 2 and 5); conditions: binding-inhibition % at 0.1 μM, as in Test Example 2; Table 5; read-out: CXCR4 Activity % at 0.1 μM
T1 construct: endogenous in cells; host or cells: MT-4 cells
Method: MT-4 cells (5×10^6/0.2 ml/well) were cultured on a 24-well microtiter plate. After the cells were incubated for 24 hours at 37° C. in a carbon dioxide gas incubator, a culture medium was replaced with a buffer solution (0.1% BSA-containing RPMI-1640). Together with a ligand ^125I-SDF-1α, (specific activity: 2,200 Ci/mmol; available from Daiichi Pure Chemicals Co., Ltd. (Tokyo)), test materials with various concentrations were subjected to a binding reaction for 2 hours under ice-cooling. […] Then, a rate of inhibition of the binding between radio-active ligands and receptors CXCR4 by a test material was calculated (a binding-inhibition % at 0.1 μM).
(§1) Compounds of the present invention having various substituted and unsubstituted heterocyclic rings for the substituent A2 of formula (1) were tested for antiviral (anti-HIV) activity as in Test Example 1 and for CXCR4 activity as in Test Example 2. The compounds, various substituents of the compounds, antiviral activity represented by the concentration required for inhibition of all disorder due to HIV injection by 50% (EC50: 50% Effective Concentration, μM), and CXCR4 activity calculated as a rate of inhibition of the binding between radioactive ligands and CXCR4 receptors by a test material (a binding-inhibition % at 0.1 μM) are shown in Table 5: […]

[1] = tested on: HIV-1IIIB infected MT-4 cells; experiment: Antiviral activity in HIV-1IIIB infected MT-4 cells, MTT method (Test Examples 1 and 5); format: cell-based; conditions: Human immunodeficiency virus 1, MT4; as in Test Example 1; Table 5; read-out: HIV Activity EC50
Method: Immediately after infection, HIV-1IIIB infected MT-4 cells (3.0×10^4/well, MOI (Multiplicity of infection): 0.01) were added to a 96-well microtiter plate together with the test compounds having different concentrations. The cells were cultured in a carbon dioxide incubator at 37° C. for 5 days, and the number of living cells was measured in accordance with the MTT (tetrazolium) method (Pawels, et al., Journal of Virology Method, 20, 309-321 ([…])). The antiviral activity is represented by the concentration required for inhibition of cell disorder due to HIV by 50% (EC50: 50% Effective Concentration) (μM), and the results are shown in Table 2.
as §1

T1 sequence (P61073 whole entry): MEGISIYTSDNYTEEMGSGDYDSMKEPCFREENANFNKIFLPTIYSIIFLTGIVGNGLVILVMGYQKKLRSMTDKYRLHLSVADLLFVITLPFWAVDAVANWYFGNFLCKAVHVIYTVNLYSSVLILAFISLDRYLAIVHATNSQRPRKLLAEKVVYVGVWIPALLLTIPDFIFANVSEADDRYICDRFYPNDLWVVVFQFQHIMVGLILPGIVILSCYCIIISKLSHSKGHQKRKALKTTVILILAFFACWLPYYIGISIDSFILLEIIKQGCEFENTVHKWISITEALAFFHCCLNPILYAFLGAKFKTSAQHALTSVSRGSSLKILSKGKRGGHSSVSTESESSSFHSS

Row | inhibition at 0.1 µM (CXCR4) [%] | SMILES | EC50 [1] [nM]
1 | 46.9 | CCCN(CCC)c1ccc(NC(=O)c2ccc(CN(Cc3ncc[nH]3)Cc3ncc[nH]3)cc2)cc1 [Compound No. 15, 4-{[bis(1H-imidazol-2-ylmethyl)-amino]-methyl}-N-(4-dipropylaminophenyl)-benzamide] | –
2 | 97.8 | CCCN(CCC)Cc1cccc(NC(=O)c2ccc(CN(Cc3ncc[nH]3)Cc3ncc[nH]3)cc2)c1 [Compound No. 33, 4-{[bis(1H-imidazol-2-ylmethyl)-amino]-methyl}-N-(3-dipropylaminomethylphenyl)-benzamide] | 46
3 | 89.6 | CCCN(CCC)Cc1ccc(NC(=O)c2ccc(CN(Cc3ncc[nH]3)Cc3ncc[nH]3)c3ccccc23)cc1 [Compound No. 36, 4-{[bis(1H-imidazol-2-ylmethyl)-amino]-methyl}-naphtalene-1-carboxylic acid (4-dipropylaminomethylphenyl)-amide] | 501
4 | – | CCCN(CCC)Cc1ccc(NC(=O)c2ccc(CN(Cc3nccn3C)Cc3nccn3C)cc2)cc1 [Compound No. 41, 4-{[bis(1-methyl-1H-imidazol-2-ylmethyl)-amino]-methyl}-N-(4-dipropylaminomethylphenyl)-benzamide] | 3
5 | 98.8 | CCCN(CCC)Cc1ccc(NC(=O)c2ccc(CN(Cc3cc4ccccc4cn3)Cc3ncc[nH]3)cc2)cc1 [Compound No. 47, N-(4-dipropylaminomethylphenyl)-4-{[(1H-imidazol-2-ylmethyl)-(isoquinolin-3-ylmethyl)-amino]-methyl}-benzamide] | 20
6 | 97.7 | CCCN(CCC)Cc1ccc(NC(=O)c2ccc(CN(Cc3ccccn3)Cc3ncc[nH]3)cc2)cc1 [Compound No. 48, N-(4-dipropylaminomethylphenyl)-4-{[(1H-imidazol-2-ylmethyl)-(pyridin-2-ylmethyl)-amino]-methyl}-benzamide] | 22
7 | 97.7 | CCCN(CCC)Cc1ccc(NC(=O)c2ccc(CN(Cc3ncc[nH]3)Cc3ncccc3C)cc2)cc1 [Compound No. 53, N-(4-dipropylaminomethylphenyl)-4-{[(1H-imidazol-2-ylmethyl)-(3-methylpyridin-2-ylmethyl)-amino]-methyl}-benzamide] | 9
8 | 21 | CCCN(CCC)Cc1ccc(NC(=O)c2ccc(CN(Cc3ccc4ccccc4n3)Cc3ncc[nH]3)cc2)cc1 [Compound No. 55, N-(4-dipropylaminomethylphenyl)-4-{[(1H-imidazol-2-ylmethyl)-(quinolin-2-ylmethyl)-amino]-methyl}-benzamide] | 635
9 | 98.8 | CCCN(CCC)Cc1ccc(NC(=O)c2ccc(CN(Cc3ccc(C)cn3)Cc3ncc[nH]3)cc2)cc1 [Compound No. 56, N-(4-dipropylaminomethylphenyl)-4-{[(1H-imidazol-2-ylmethyl)-(5-methylpyridin-2-ylmethyl)-amino]-methyl}-benzamide] | 3
10 | 18.6 | CCCN(CCC)Cc1ccc(NC(=O)c2ccc(CN(Cc3ccncc3)Cc3ncc[nH]3)cc2)cc1 [Compound No. 58, N-(4-dipropylaminomethylphenyl)-4-{[(1H-imidazol-2-ylmethyl)-(pyridin-4-ylmethyl)-amino]-methyl}-benzamide] | 97
11 | 98.2 | CCCN(CCC)Cc1ccc(NC(=O)c2ccc(CN(Cc3ncc[nH]3)Cc3ncccc3OCC)cc2)cc1 [Compound No. 59, N-(4-dipropylaminomethylphenyl)-4-{[(1H-imidazol-2-ylmethyl)-(3-ethoxypyridin-2-ylmethyl)-amino]-methyl}-benzamide] | 24
12 | 14.7 | CCCN(CCC)Cc1ccc(NC(=O)c2ccc(CN(Cc3ncc[nH]3)Cc3nccc4ccccc34)cc2)cc1 [Compound No. 63, N-(4-dipropylaminomethylphenyl)-4-{[(1H-imidazol-2-ylmethyl)-(isoquinolin-1-ylmethyl)-amino]-methyl}-benzamide] | 81
13 | 100 | CCCN(CCC)Cc1ccc(NC(=O)c2ccc(CN(Cc3ncc[nH]3)Cc3ncc(C)c(OC)c3C)cc2)cc1 [Compound No. 64, N-(4-dipropylaminomethylphenyl)-4-{[(1H-imidazol-2-ylmethyl)-(4-methoxy-3,5-dimethylpyridin-2-ylmethyl)-amino]-methyl}-benzamide] | 18
14 | 100 | CCCN(CCC)Cc1ccc(NC(=O)c2ccc(CN(Cc3ccc4cccc(O)c4n3)Cc3ncc[nH]3)cc2)cc1 [Compound No. 72, N-(4-dipropylaminomethylphenyl)-4-{[(8-hydroxyquinolin-2-ylmethyl)-(1H-imidazol-2-ylmethyl)-amino]-methyl}-benzamide] | 4
15 | – | CCCN(CCC)Cc1ccc(NC(=O)c2ccc(CN(Cc3ccc(C)cn3)Cc3nccn3C)cc2)cc1 [Compound No. 76, N-(4-dipropylaminomethylphenyl)-4-{[(1-methyl-1H-imidazol-2-ylmethyl)-(5-methylpyridin-2-ylmethyl)-amino]-methyl}-benzamide] | 7
16 | – | CCCN(CCC)Cc1ccc(NC(=O)c2ccc(CN(Cc3cc(C)ccn3)Cc3ncc[nH]3)cc2)cc1 [Compound No. 78, N-(4-dipropylaminomethylphenyl)-4-{[N-(1H-imidazol-2-ylmethyl)-(4-methylpyridin-2-ylmethyl)-amino]-methyl}-benzamide] | 19
17 | 99 | Cn1ccnc1CN(Cc1ccc(C(=O)Nc2ccc(CNC3CCCCC3)cc2)cc1)Cc1ncc[nH]1 [Compound No. 88, N-(4-cyclohexylaminomethylphenyl)-4-{[(1H-imidazol-2-ylmethyl)-(1-methyl-1H-imidazol-2-ylmethyl)-amino]-methyl}-benzamide] | 5
18 | – | O=C(Nc1ccc(CNC2CCCCC2)cc1)c1ccc(CN(Cc2ncc[nH]2)Cc2ncc[nH]2)cc1 [Compound No. 89, 4-{[bis(1H-imidazol-2-ylmethyl)-amino]-methyl}-N-(4-cyclohexylaminomethylphenyl)-benzamide] | 9
19 | – | CCCN(CCC)Cc1ccc(NC(=O)c2ccc(CN(Cc3ncc[nH]3)Cc3nccn3CC)cc2)cc1 [Compound No. 91, N-(4-dipropylaminomethylphenyl)-4-{[(1-ethyl-1H-imidazol-2-ylmethyl)-(1H-imidazol-2-ylmethyl)-amino]-methyl}-benzamide] | 15
20 | – | CCCN(CCC)Cc1ccc(NC(=O)c2ccc(CN(Cc3ncc[nH]3)Cc3nccn3CCC)cc2)cc1 [Compound No. 92, N-(4-dipropylaminomethylphenyl)-4-{[(1H-imidazol-2-ylmethyl)-(1-propyl-1H-imidazol-2-ylmethyl)-amino]-methyl}-benzamide] | 48
21 | 100 | CCCN(CCC)Cc1ccc(NC(=O)c2ccc(CN(Cc3ncc[nH]3)Cc3nccn3CCO)cc2)cc1 [Compound No. 94, N-(4-dipropylaminomethylphenyl)-4-({[1-(2-hydroxyethyl)-1H-imidazol-2-ylmethyl]-(1H-imidazol-2-ylmethyl)-amino}-methyl)-benzamide] | 3
22 | 99.1 | CCCN(CCC)Cc1ccc(NC(=O)c2ccc(CN(Cc3ncc[nH]3)Cc3ncc(C)cc3C)cc2)cc1 [Compound No. 101, 4-{[(3,5-dimethyl-pyridin-2-ylmethyl)-(1H-imidazol-2-ylmethyl)-amino]-methyl}-N-(4-dipropylaminomethyl-phenyl)-benzamide] | 5
23 | 98.4 | CCCN(CCC)Cc1ccc(NC(=O)c2ccc(CN(Cc3ccc(CC)cn3)Cc3ncc[nH]3)cc2)cc1 [Compound No. 102, N-(4-dipropylaminomethyl-phenyl)-4-{[(5-ethyl-pyridin-2-ylmethyl)-(1H-imidazol-2-ylmethyl)-amino]-methyl}-benzamide] | 3
24 | 96.4 | CCCN(CCC)Cc1ccc(NC(=O)c2ccc(CN(Cc3nc[nH]n3)Cc3ncc[nH]3)cc2)cc1 [Compound No. 114, N-(4-di-n-propylaminomethyl-phenyl)-4-{[(1H-imidazol-2-ylmethyl)-(1H-[1,2,4]-triazol-3-ylmethyl)-amino]-methyl}-benzamide] | 89
25 | – | CCCN(CCC)Cc1ccc(NC(=O)c2ccc(CN(Cc3nc[nH]n3)Cc3nccn3C)cc2)cc1 [Compound No. 123, N-(4-di-n-propylaminomethyl-phenyl)-4-{[(1-methyl-imidazol-2-ylmethyl)-(1H-[1,2,4]-triazol-3-ylmethyl)-amino]-methyl}-benzamide] | 68
